{"source": "paper PMC4492727", "about": "(Pharmacology Research & Perspectives, 2015)", "key": {"MDCK II (MDR1) cells [1]": {"system": "MDCK II (MDR1) cells", "type": "in vitro ADME, canine (cells expressing human P-gp)", "conditions": "2.4 μmol/L telmisartan"}, "[2]": {"system": "MDCK II cells transfected with the human MDR1 gene", "conditions": "5 μmol/L telmisartan, 30 min preincubation; ref Chang et al. ([2006]); cited from earlier work"}, "[3]": {"system": "P-gp activity of the murine cell line P388/dx", "conditions": "P388/dx cells; ref Weiss et al. [2010]; cited from earlier work"}, "[4]": {"conditions": "cited from earlier work"}, "P-gp": {"system": "P-gp", "conditions": "read-out: IC50 as inhibitor of P-gp; ref Weiss et al. [2010]; cited from earlier work"}, "MDCK II (MDR1) cells [5]": {"system": "MDCK II (MDR1) cells", "test": "Bidirectional transepithelial transport across MDCK II"}}, "note": "Where two headings read alike, the source gives them in different places.", "data": [{"smiles": "CCCc1nc2c(C)cc(-c3nc4ccccc4n3C)cc2n1Cc1ccc(-c2ccccc2C(=O)O)cc1", "note": "[telmisartan]", "values": [{"measurement": "effect on amount of [3H]-digoxin present in cells and filter", "setting": "MDCK II (MDR1) cells [1]", "result": "no difference"}, {"measurement": "increase in concentration of verapamil in cells compared to untreated control", "setting": "MDCK II (MDR1) cells [1]", "result": "~26", "unit": "%"}, {"measurement": "inhibition of the efflux transport of digoxin", "setting": "[2]", "result": "able to inhibit"}, {"measurement": "P-gp inhibitory effect, calcein AM uptake", "setting": "[3]", "result": "inhibited"}, {"measurement": "aqueous solubility", "setting": "[4]; ref Park et al. [2013]", "result": 0.45, "unit": "µM"}, {"measurement": "aqueous solubility", "setting": "[4]; ref Tran et al. [2008]", "result": 0.17, "unit": "µM"}, {"measurement": "IC50", "setting": "P-gp", "result": 380, "unit": "nM"}, {"measurement": "effect on transepithelial efflux of [3H]-verapamil", "setting": "MDCK II (MDR1) cells [5]; 2.4 μmol/L telmisartan", "result": "minor inhibition"}, {"measurement": "effect on transepithelial transport of [3H]-digoxin", "setting": "MDCK II (MDR1) cells [5]; 2.4 μmol/L telmisartan", "result": "does not affect"}, {"measurement": "effect on verapamil transport in pilot experiments", "setting": "MDCK II (MDR1) cells [5]; low concentrations of telmisartan, data not shown", "result": "no effects"}]}]}
